Assay results from patent US6464988B1, “Glipizide-cyclodextrin inclusion complexes and their pharmaceutical composition” (USV Limited, priority 2001, dated 2002).

Assay: In-vitro dissolution studies (% release of glipizide)
Assay type: physicochemical
Conditions: containing 10 mg of Glipizide

1-cyclohexyl -3-[[p-[2-(methylpyrazinecarboxamido)ethyl]phenyl]sulfonyl]urea [Glipizide]
% release of glipizide (0.1N Hydrochloric acid, 200 ml, 5 mins): 14-18%
% release of glipizide (0.1N Hydrochloric acid, 200 ml, 15 mins): 23-24%
% release of glipizide (0.1N Hydrochloric acid, 200 ml, 30 mins): 23-26%
% release of glipizide (0.1N Hydrochloric acid, 400 ml, 5 mins): 16-20%
% release of glipizide (0.1N Hydrochloric acid, 400 ml, 15 mins): 26-27%
% release of glipizide (0.1N Hydrochloric acid, 400 ml, 30 mins): 26-30%
% release of glipizide (0.1N Hydrochloric acid, 900 ml, 5 mins): 16-18%
% release of glipizide (0.1N Hydrochloric acid, 900 ml, 15 mins): 22-26%
% release of glipizide (0.1N Hydrochloric acid, 900 ml, 30 mins): 24-27%
% release of glipizide (Phosphate Buffer pH 6.8 USP, 200 ml, 5 mins): 23-27%
% release of glipizide (Phosphate Buffer pH 6.8 USP, 200 ml, 15 mins): 65-67%
% release of glipizide (Phosphate Buffer pH 6.8 USP, 200 ml, 30 mins): 64-67%
% release of glipizide (Phosphate Buffer pH 6.8 USP, 400 ml, 5 mins): 24-29%
% release of glipizide (Phosphate Buffer pH 6.8 USP, 400 ml, 15 mins): 64-69%
% release of glipizide (Phosphate Buffer pH 6.8 USP, 400 ml, 30 mins): 65-67%
% release of glipizide (Phosphate Buffer pH 6.8 USP, 900 ml, 5 mins): 25-28%
% release of glipizide (Phosphate Buffer pH 6.8 USP, 900 ml, 15 mins): 55-62%
% release of glipizide (Phosphate Buffer pH 6.8 USP, 900 ml, 30 mins): 65-68%
% release of glipizide (Purified water pH 7.0, 200 ml, 5 mins): 30-32%
% release of glipizide (Purified water pH 7.0, 200 ml, 15 mins): 38-40%
% release of glipizide (Purified water pH 7.0, 200 ml, 30 mins): 39-41%
% release of glipizide (Purified water pH 7.0, 400 ml, 5 mins): 32-34%
% release of glipizide (Purified water pH 7.0, 400 ml, 15 mins): 40-42%
% release of glipizide (Purified water pH 7.0, 400 ml, 30 mins): 40-44%
% release of glipizide (Purified water pH 7.0, 900 ml, 5 mins): 20-25%
% release of glipizide (Purified water pH 7.0, 900 ml, 15 mins): 30-33%
% release of glipizide (Purified water pH 7.0, 900 ml, 30 mins): 38-41%
